# In the COVID Moonshot data (paper PMC7615835):
# pIC50: −log10 of the molar value. “And” between values parts separate entries of the source, which are not always exact repeats. Equal entries are not always repeated.
# Target: SARS-CoV-2 Main Protease (SARS-CoV-2) (UniProt P0DTD1)
row,SMILES,pIC50
1,O=C(Nc1cncc2ccc(C(F)(F)F)cc12)C1CCOc2ccc(Cl)cc21 (configuration not stated),< 4.00
2,O=C(Cc1cc(Cl)cc(Nc2ncnc(Cl)c2Cl)c1)Nc1cncc2ccccc12,5.69
3,O=C(NCCc1cccc(F)c1)C(c1cccnc1)N(C(=O)c1cocn1)C1COc2ccccc2C1 (configuration not stated),< 4.00
4,Cc1cc(C(F)(F)F)nc2c1c(N)nn2C(=O)Cc1cccc(Cl)c1,< 4.00
5,CC(C)(C)c1ccc(N(C(=O)c2cocn2)C(C(=O)N2CCC(c3cccc(F)c3)CC2)c2cccnc2)cc1 (configuration not stated),5.02
6,O=C(Cc1cc(Cl)cc(Oc2cccc(=O)[nH]2)c1)Nc1cncc2ccccc12,5.70
7,O=C(Cc1cc(O)cc(Cl)c1)Nc1cncc2ccccc12,5.00
8,Cc1ccccc1C(C)N(C(=O)c1cocn1)C(C(=O)NCCc1cccc(F)c1)c1cccnc1 (configuration not stated),< 4.00
9,Cc1nc(Br)ccc1Nc1cc(Cl)cc(CC(=O)Nc2cncc3ccccc23)c1,5.55
10,O=C(CN1CC(C(=O)Nc2cncc3cc(F)ccc23)c2cc(Cl)ccc2C1=O)NC1COC1 (configuration not stated),6.00
11,CNC(=O)CN1Cc2ccc(Cl)cc2[C@@]2(CCN(c3cncc4c3CCCC4)C2=O)C1 (stereo in doubt),6.63
12,COc1ccccc1OCCNC(=O)C1CC(=O)Nc2ccccc21 (configuration not stated),< 4.00
13,COc1cc(Cl)c(C)cc1Nc1cc(Cl)cc(CC(=O)Nc2cncc3ccccc23)c1,5.80
14,O=C(Cc1cccc(Cl)c1)Nc1cncc2nc[nH]c12,4.88
15,Cc1cccc2c(NC(=O)Cc3cccc(Cl)c3)cncc12,< 4.00
16,Cc1ccc(S(=O)(=O)NCCNC(=O)N2CCN(S(=O)(=O)N3CCCC3)CC2)cc1,< 4.00
17,O=C(c1cc(=O)[nH]c2ccccc12)N1CCN(c2cccc(Cl)c2)CC1,5.67
18,O=C(NCc1ccc(Cl)cc1CN1CCN(C(=O)CCl)CC1)[C@@H]1CCCOC1 (stereo in doubt),4.92
19,CCOC(=O)c1ccc(NC(=O)CC2SC(=O)N(c3ccccc3)C2=O)cc1 (configuration not stated),5.62
20,CNC(=O)CN1CC2(CC(=O)N(c3cncc4ccccc34)C2=O)c2cc(Cl)ccc2C1=O (configuration not stated),6.59
21,CC(=O)N(c1ccc(N)cc1)c1cc(Cl)cc(CC(=O)Nc2cncc3ccccc23)c1,5.63
22,CC(=O)N(CC(=O)Nc1ccc(F)c(Cl)c1)c1cccc(C#N)c1,< 4.00
23,O=C(Cc1cc(Cl)cc(Nc2cc(F)c(F)cc2Br)c1)Nc1cncc2ccccc12,5.67
24,Cc1ccncc1NC(=O)[C@H](C)OC(F)F (stereo in doubt),< 4.00

row,SMILES,pIC50
1,O=C(Cc1cc(Cl)cc(Nc2ncc(C(F)(F)F)cc2Cl)c1)Nc1cncc2ccccc12,5.77
2,COCc1csc(N(C(=O)c2cocn2)C(C(=O)NCCc2cccc(F)c2)c2cccnc2)n1 (configuration not stated),< 4.00
3,CCCC(C(=O)Nc1cnccc1C)c1cccc(Cl)c1 (configuration not stated),4.75 and 4.77
4,Cc1ccc(S(=O)(=O)NC2CCN(C(=O)CCl)CC2)cc1,4.47
5,Cc1ccccc1NC(=O)CC1SC(=O)N(c2ccccc2)C1=O (configuration not stated),6.35
6,O=C(Cc1cc(Cl)cc(OC(F)(F)F)c1)Nc1cncc2ccccc12,5.81
7,O=C(Nc1ccccn1)[C@H]1CN(C(=O)CCl)CCN1S(=O)(=O)c1ccsc1 (stereo in doubt),5.32
8,Cn1c(NC(=O)Cc2csc3nccn23)nc2ccc(F)cc21,< 4.00
9,O=C(Cc1cc(Cl)cc(NCc2ccc(OC(F)(F)F)cc2)c1)Nc1cncc2ccccc12,5.26
10,COc1cccc(C(NC(=O)Cc2cccc(Cl)c2)c2nc3ccccc3[nH]2)c1 (configuration not stated),< 4.00
11,Nc1nn(C(=O)C2CCOc3ccc(Cl)cc32)c2cc(F)ccc12 (configuration not stated),< 4.00
12,N#CC1(CS(=O)(=O)N2Cc3ccc(Cl)cc3C(C(=O)Nc3cncc4cc(Cl)ccc34)C2)CC1 (configuration not stated),6.55
13,O=C(Cc1cccc(Cl)c1)Nn1nnc2ccccc21,5.24
14,COc1ccccc1OCCNC(=O)c1cc(=O)[nH]c2cccc(C)c12,4.97
15,O=C(Cc1cc(Cl)cc(NCc2cc(F)c(F)c(F)c2)c1)Nc1cncc2ccccc12,5.47
16,Cc1cc(C)c(S(=O)(=O)N2CCCC2C(=O)Nc2ccc3[nH]c(=O)sc3c2)c(C)c1 (configuration not stated),< 4.00
17,O=C(Nc1cccnc1)c1cc(Cl)ccc1-c1ccccc1,4.41
18,O=C(Nc1cncc2ccncc12)C1CCOc2cc(F)c(Cl)cc21 (configuration not stated),5.96
19,O=C(Nc1ccc(F)cc1)[C@@H](c1ccccc1)N1Cc2ccccc2C1=O (stereo in doubt),< 4.00
20,CS(=O)(=O)Nc1ccc2c(NC(=O)Cc3cccc(Cl)c3)cncc2c1,6.05
21,O=C(NCCCO)c1ccc(N(C(=O)c2cocn2)C(C(=O)NCCc2cccc(F)c2)c2cccnc2)cc1 (configuration not stated),< 4.00
22,Cc1ccncc1NC(=O)Cc1cc(Cl)cc(-c2ccc(C3CC3(F)F)cc2)c1 (configuration not stated),5.07
23,O=C(Nc1cncc2ccccc12)C1CCNc2cc(Cl)c(Cl)cc21 (configuration not stated),6.81
24,O=S(=O)(c1cc2c(cc1OCc1ccccc1)OCO2)N1CCOCC1,< 4.00

row,SMILES,pIC50
1,Clc1scc(CN2CCC(c3ccn[nH]3)CC2)c1Cl,< 4.00
2,COc1ncncc1C(C(=O)NCCc1cccc(F)c1)N(C(=O)c1cocn1)c1ccc(C(C)(C)C)cc1 (configuration not stated),5.07
3,CNC(=O)CN1Cc2ccc(Cl)cc2C(C(=O)Nc2cncc3cc(NS(C)(=O)=O)ccc23)C1 (configuration not stated),7.14
4,O=C1CC(Oc2cc(Cl)cc(CC(=O)Nn3cnc4ccccc43)c2)N1 (configuration not stated),4.09
5,CNC(=O)CN1Cc2ccc(Cl)cc2C2(CCN(c3cncc4ccc(F)cc34)C2=O)C1 (configuration not stated),6.57
6,CN1C(=O)CCc2cc(N(C(=O)c3cnc[nH]3)C(C(=O)NCCc3cccc(F)c3)c3cccnc3)ccc21 (configuration not stated),< 4.00
7,Cc1ccncc1NC(=O)Cc1cc(Cl)cc(OCc2ncc[nH]2)c1,< 4.00
8,O=C(Cc1cc(Cl)cc(N2CCN(C(=O)OCc3ccccc3)CC2)c1)Nc1cncc2ccccc12,5.65
9,CCOC(=O)CNC(=O)C(c1cccnc1)N(C(=O)c1cocn1)c1ccc(C(C)(C)C)cc1 (configuration not stated),5.02
10,O=C(Nc1cncc2ccccc12)C1CN(C2CCNC2=O)C(=O)c2ccc(Cl)cc21 (configuration not stated),6.14
11,CC(C)(C)c1ccc(N(C(=O)c2cocn2)C(C(=O)NCCc2cccc(F)c2)c2ccnnc2)cc1 (configuration not stated),5.69
12,CC(C)(C)c1cc(N(C(=O)c2cocn2)C(C(=O)NCCc2cccc(F)c2)c2cccnc2)no1 (configuration not stated),4.29
13,O=C(NCc1ccccn1)[C@@H]1CN(C(=O)CCl)CCN1S(=O)(=O)c1ccsc1 (stereo in doubt),6.27
14,Cc1ccnnc1NC(=O)Cc1cccc(Cl)c1,< 4.00
15,CNC(=O)CN1Cc2ccc(Cl)cc2C2(CCN(c3cncc4ccc(OC)cc34)C2=O)C1 (configuration not stated),6.82
16,COC(=O)[C@H]1C[C@@H](NC(=O)C(c2cccnc2)N(C(=O)c2cocn2)c2ccc(C(C)(C)C)cc2)CN1C(=O)OC(C)(C)C (stereo in doubt),5.27
17,Cc1ccn2cnnc2c1NC(=O)Cc1cccc(Cl)c1,4.12
18,OCCn1c(CSc2nc3ccccc3o2)nc2ccc(Cl)cc21,6.49
19,O=C(Cc1cc(Cl)cc(Nc2ccc(I)cc2F)c1)Nc1cncc2ccccc12,5.65
20,O=C(Nc1cccc2cc[nH]c12)c1cccc2[nH]c(=O)oc12,< 4.00
21,O=C(Cc1cccc(Cl)c1)Nc1cccc2cn[nH]c12,< 4.00
22,CS(=O)(=O)c1ccc2c(NC(=O)C3CN(CC(=O)NCC(F)(F)F)C(=O)c4ccc(Cl)cc43)cncc2c1 (configuration not stated),6.54
23,CCN(C)CCOc1ccc2cncc(N3CCC4(CN(S(=O)(=O)CC5(C#N)CC5)Cc5ccc(Cl)cc54)C3=O)c2c1 (configuration not stated),6.40
24,CC(C)(C)OC(=O)NCCCNC(=O)C(c1cccnc1)N(C(=O)c1cocn1)c1ccc(C(C)(C)C)cc1 (configuration not stated),5.47
